Experimental data: PMC6121260, “Sulfated Metabolites of Flavonolignans and 2,3-Dehydroflavonolignans: Preparation and Properties” (International Journal of Molecular Sciences, 2018)
Marks after values point to notes of the source that are not given here.

Columns and labels:
[1] = Ferric reducing antioxidant power (FRAP); type: biochemical; conditions: equivalents of Fe^2+, mean ± standard error
Method: (§1) N,N-dimethyl-p-phenylenediamine (DMPD) and 2,2′-azino-bis(3-ethylbenzothiazolin-6-sulfonic acid (ABTS) cation radical scavenging and ferric reducing antioxidant power (FRAP) were measured using kits from Bioquochem (Llanera-Asturias, Spain). Antiradical activity by 2,2-diphenyl-1-picrylhydrazyl radical scavenging assay, reducing capacity using Folin–Ciocalteau reagent (FCR), and anti-lipoperoxidant activity using inhibition of lipid peroxidation of rat liver microsomes induced by tert-butyl hydroperoxide were determined as described previously with modifications described in detail in our previous research.

[2] = DMPD+ cation radical scavenging; type: biochemical; conditions: vitamin C equivalents, mean ± standard error
Method: as §1

[3] = Inhibition of lipoperoxidation (Lpx) induced by tert-butyl hydroperoxide; type: biochemical; conditions: rat liver microsomal membranes, mean ± standard error
Method: as §1

[4] = Log p, octan-1-ol / phosphate buffer partition; type: physicochemical; conditions: octan-1-ol / 6.6 mM phosphate buffer pH 7.4, 25 °C
Method: The hydrophobicity of the compounds was determined by measuring their partition coefficient P in a mixture of two immiscible phases—octan-1-ol and 6.6 mM phosphate buffer pH 7.4. Stock solutions (0.5 mM) were prepared in octan-1-ol (parent compounds) and in the buffer (sulfated compounds). The stock solutions (150 µL) were mixed with 150 µL of the immiscible phase in microcentrifuge tubes (1.5 mL); shaken for 2 h (750 rpm, 25 °C); and after incubation, the phases were separated. Water phases were diluted 1:1 with the mobile phase (acetonitrile/deionized water/HCO2H, 5:95:0.1; v/v) and analyzed by HPLC using the gradient G3 (see Section 3.1.3). Octan-1-ol phases were evaporated in the stream of air (70 °C), then dissolved in 10 µL of DMSO, and mixed with 90 µL of mobile phase and analyzed by HPLC. The log p values were calculated from the respective peak heights (h) using the formula log p = log(hoctanol/hbuffer). For comparison, log p values were calculated using the Molinspiration property engine v2016.10 (http://www.molinspiration.com, Molinspiration Cheminformatics, Slovensky Grob, Slovakia) (access on 26th October 2017).

DPPH radical scavenging = type: biochemical; conditions: mean ± standard error
Method: as §1

[5] = target: T1, aryl sulfotransferase from rat liver (AST IV) (Rattus norvegicus, UniProt P17988); test: Substrate specificity of AST IV (whole E. coli cells, p-NPS donor); type: in vitro ADME; design: key: +: isolated sulfated product(s) and/or release of p-nitrophenol (p-NP); –: no formation of p-NP and/or isolated sulfated products; conditions: whole E. coli cells expressing AST IV, 37 °C, 72 h
T1 construct: made in house; host or cells: E. coli BL21 (DE3) Gold (whole cells used as catalyst)
Method: The plasmid bearing astIV gene was kindly provided by Prof. L. Elling, RWTH Aachen, Germany. The enzyme was expressed in E. coli BL21 (DE3) Gold as described, with modifications reported in our previous work. Whole E. coli cells producing the enzyme, freshly prepared according to the literature, were employed in the biotransformation experiments as a catalyst.
Silybin, silybin A, silybin B, silychristin, and silydianin (separately, each 50 mg, 0.104 mmol) and p-nitrophenyl sulfate (p-NPS, 35 mg, 0.136 mmol; Sigma-Aldrich, St. Louis, MO, USA) were dissolved in 3 mL DMSO, and 2 g (wet based) of whole cells expressing AST IV resuspended in K-phosphate buffer (pH 7.5, 17 mL) were added. The reaction mixture was incubated on a rotary shaker at 37 °C for 24 h. The cells were then removed by centrifugation (30 min, 5000 rpm, 5404 R Eppendorf, Germany), a new portion of fresh cells (2 g in 15 mL, wet based, resuspended in K-phosphate buffer) were added to the supernatant and incubated for 24 h. This step was repeated once more with a total reaction time of 72 h. The reaction was monitored by HPLC and after 72 h, the reaction mixtures, containing the sulfated product(s), were purified by preparative HPLC employing Asahipak GS-310 20F (Shodex, Tokyo, Japan) column with isocratic elution with 100% methanol. The fraction containing the putative sulfated product(s) was evaporated, dissolved in 1 mL of 80% methanol, and loaded onto a Sephadex LH-20 column (15 g dry weight, 12 mm i.d.) packed and eluted with 80% methanol. Only one sulfated product was obtained; silybin B 20-O-sulfate (14.5 mg, 0.03 mmol, yield 25%), whose identity was confirmed by comparison with previously published data.

[6] = Folin–Ciocalteu reagent (FCR) reduction; type: biochemical; conditions: Folin–Ciocalteau reagent reduction, gallic acid equivalents, mean ± standard error
Method: as §1

[7] = ABTS+ cation radical scavenging; type: biochemical; conditions: vitamin C equivalents, mean ± standard error
Method: as §1

[8] = system: NAD(P)/quinone oxidoreductase 1 (NQO1) activity in Hepa1c1c7 cells; test: NQO1 activity in Hepa1c1c7 cells (Nrf2 pathway); type: cell-based, murine; conditions: 48 h; for NQO1 activity, fold versus control: 50 µM
Method: The murine hepatoma Hepa1c1c7 cell line (ECACC, Salisbury, UK) was cultured in minimum essential medium α (M0894, Sigma-Aldrich, St. Louis, MO, USA), supplemented with 2.2 g/L NaHCO3 and 10% heat- and charcoal-treated fetal bovine serum (Biochrom, Berlin, Germany), and maintained at 37 °C in a humidified atmosphere containing 5% CO2. For all experiments, cells were seeded onto 96-well plates at 1 × 10^4 cells/well. After 24 h of stabilization, cells were treated for 48 h with 0.1% (v/v) DMSO (negative control), 2.5 µM sulforaphane (positive control; Sigma-Aldrich, St. Louis, MO, USA), or with the tested compounds in fresh culture medium. After the treatment, the activity of NQO1 was determined spectrophotometrically as described previously. Cells were washed with phosphate-buffered saline (PBS) and lysed with 75 µL of digitonin solution (0.8 g/L digitonin, 2 mM EDTA, pH 7.8) by shaking on an orbital shaker for 20 min at room temperature. A part of the cell lysate (20 µL) was used to determine the protein content. The remaining lysate (55 µL) was mixed with 200 µL of 0.5 M Tris-Cl buffer containing 10% (w/v) bovine serum albumin, 1.5% (v/v) Tween-20, 7.5 mM FAD, 150 mM glucose-6-phosphate, 2 U/mL glucose-6-phosphate dehydrogenase (Roche Diagnostics, Mannheim, Germany), 50 mM NADP^+, 25 mM menadione, and 0.7 mM 3-(4,5-dimethylthiazol-2-yl)-2,5-diphenyltetrazolium bromide (MTT). The mixture was incubated for 5 min at room temperature and the reaction was stopped with 50 µL of dicumarol suspension (0.3 mM dicumarol, 5 mM potassium phosphate, 0.5% (v/v) DMSO). The absorbance of the reduced MTT corresponding to the activity of NQO1 was measured at 610 nm on a spectrophotometric plate reader. The absorbance values were normalized to the protein content and used for the calculation of fold changes versus the control.

T1 sequence (P17988 whole entry): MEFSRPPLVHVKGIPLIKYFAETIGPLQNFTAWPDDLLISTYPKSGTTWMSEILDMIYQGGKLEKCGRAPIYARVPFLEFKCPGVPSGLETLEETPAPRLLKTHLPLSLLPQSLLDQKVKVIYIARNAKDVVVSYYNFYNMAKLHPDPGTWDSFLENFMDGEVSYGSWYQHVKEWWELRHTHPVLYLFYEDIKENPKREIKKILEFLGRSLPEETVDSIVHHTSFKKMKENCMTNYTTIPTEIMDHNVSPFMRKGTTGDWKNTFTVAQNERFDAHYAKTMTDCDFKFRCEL

| IC50 [3] [µM] | logP at 2 h [4] | IC50 (DPPH radical scavenging) [µM] | Compound | FRAP [Fe^2+] [1] | DMPD^+ [CE] [2] | FCR [GAE] [6] | ABTS^+ [CE] [7] | NQO1 activity, fold versus control [8] [fold] | other results |
| --- | --- | --- | --- | --- | --- | --- | --- | --- | --- |
| 17.9 ± 0.7 | 1.47 | 37.1 ± 3.1 | COc1cc(C2Oc3c(O)cc([C@H]4Oc5cc(O)cc(O)c5C(=O)[C@@H]4O)cc3C2CO)ccc1O (some centres unmarked) [Silychristin, reference compound] | 0.64 ± 0.06 Fe^2+ | 1.50 ± 0.02^o CE | 1.13 ± 0.23 ^m GAE | 1.50 ± 0.09 CE |  | DMPD^+ [CE] ([2]; listed as silychristin): 1.5 CE; Formation of p-NP [5]: + ^a |
| 12 ± 1.8 | -2.24 | 7.9 ± 0.3 | COc1cc(C2Oc3c(O)cc(-c4oc5cc(O)cc(O)c5c(=O)c4O)cc3C2CO)ccc1OS(=O)(=O)O (centres unmarked) [2,3-Dehydro-silychristin-19-O-sulfate, 2,3-Dehydrosilychristin-19-O-sulfate] | 1.44 ± 0.04 ^r Fe^2+ | 1.02 ± 0.04 ^n CE | 1.44 ± 0.01 ^l GAE | 0.62 ± 0.02 ^n CE | 1.4 | IC50 (DPPH radical scavenging; listed as 2,3-dehydrosilychristin monosulfate): 8 µM |
| 134 ± 2 | -2.25 | 587 ± 11 | COc1cc(C2Oc3c(O)cc([C@H]4Oc5cc(O)cc(O)c5C(=O)[C@@H]4O)cc3C2CO)ccc1OS(=O)(=O)O (some centres unmarked) [Silychristin-19-O-sulfate] | 0.05 ± 0.01 ^q Fe^2+ | 1.56 ± 0.08^o CE | 0.80 ± 0.11 ^m GAE | 0.62 ± 0.03 ^k CE | 1.3 |  |
| 13.7 ± 0.4 | -2.16 | 14.1 ± 0.5 | COc1cc(C2Oc3cc(-c4oc5cc(O)cc(O)c5c(=O)c4O)ccc3OC2CO)ccc1OS(=O)(=O)O (centres unmarked) [2,3-Dehydrosilybin-20-O-sulfate] | 1.46 ± 0.03 ^r Fe^2+ | 0.97 ± 0.02 ^n CE | 1.03 ± 0.01 ^m GAE | 0.71 ± 0.03 ^j CE | 1.3 |  |
| > 1000 | -1.65 | > 2500 | COc1cc([C@H]2Oc3cc([C@H]4Oc5cc(O)cc(O)c5C(=O)[C@@H]4O)ccc3O[C@@H]2CO)ccc1OS(=O)(=O)O [Silybin A 20-O-sulfate] | 0.01 ± 0.00 ^p Fe^2+ | 0.98 ± 0.01 ^n CE | 0.08 ± 0.01 GAE | 0.02 ± 0.00 CE | 1.2 | FCR [GAE] ([6]; listed as silybin sulfates A): 0.08 GAE |
| 90.7 ± 3.3 | < -3 | 106 ± 4 | COc1cc(C2Oc3cc(-c4oc5cc(OS(=O)(=O)O)cc(O)c5c(=O)c4O)ccc3OC2CO)ccc1OS(=O)(=O)O (centres unmarked) [2,3-Dehydrosilybin-7,20-di-O-sulfate] | 1.61 ± 0.04 Fe^2+ | 1.90 ± 0.10 CE | 0.95 ± 0.01 ^m GAE | 0.55 ± 0.03 CE | 1.2 | FRAP [Fe^2+] ([1]; listed as 2,3-dehydrosilybin-7,20-di-O-sulfate): 1.61 Fe^2+; DMPD^+ [CE] ([2]; listed as 2,3-dehydrosilybin disulfate): 1.90 CE |
| 14.6 ± 0.4 | > 3 | 8.6 ± 0.8 | COc1cc(C2Oc3c(O)cc(-c4oc5cc(O)cc(O)c5c(=O)c4O)cc3C2CO)ccc1O (centres unmarked) [2,3-Dehydrosilychristin, reference compound] | 0.28 ± 0.01 Fe^2+ | 0.97 ± 0.02 ^n CE | 1.58 ± 0.04 ^l GAE | 0.93 ± 0.03 ^l CE |  | FCR [GAE] ([6]; listed as 2,3-dehydrosilychristin): 1.58 GAE |
| > 1000 | -2.34 | > 2500 | COc1cc([C@@H]2Oc3cc([C@H]4Oc5cc(O)cc(O)c5C(=O)[C@@H]4O)ccc3O[C@H]2CO)ccc1OS(=O)(=O)O [Silybin B 20-O-sulfate] | 0.01 ± 0.00 ^p Fe^2+ | 0.99 ± 0.01 ^n CE | 0.16 ± 0.02 GAE | 0.04 ± 0.00 CE | 0.9 | FCR [GAE] ([6]; listed as silybin sulfates B): 0.16 GAE |
| 10.4 ± 0.4 | > 3 | 13.3 ± 0.6 | COc1cc(C2Oc3cc(-c4oc5cc(O)cc(O)c5c(=O)c4O)ccc3OC2CO)ccc1O (centres unmarked) [2,3-Dehydrosilybin, reference compound] | 0.81 ± 0.02 Fe^2+ | 1.02 ± 0.02 ^n CE | 1.51 ± 0.09 ^l GAE | 0.77 ± 0.01 ^j CE |  | FRAP [Fe^2+] ([1]; listed as 2,3-dehydrosilybin): 0.81 Fe^2+; IC50 (DPPH radical scavenging; listed as 2,3-dehydrosilybin): 13 to 14 µM; FCR [GAE] ([6]; listed as 2,3-dehydrosilybin): 1.50 GAE |
| 32.7 ± 2.4 |  | 2.9 ± 0.1 | Cc1c(C)c2c(c(C)c1O)CCC(C)(C(=O)O)O2 (centres unmarked) [Trolox, reference compound] |  |  | 0.33 ± 0.00 ^k GAE |  |  |  |
|  |  |  | COc1cc([C@@H]2[C@H]3CO[C@@]4(O)C(=O)[C@@H]2C=C([C@H]2Oc5cc(O)cc(O)c5C(=O)[C@@H]2O)[C@@H]34)ccc1O [Silydianin] |  |  |  |  |  | Formation of p-NP [5]: + ^a |
|  |  |  | COc1cc(C2Oc3cc([C@H]4Oc5cc(O)cc(O)c5C(=O)[C@@H]4O)ccc3OC2CO)ccc1O (some centres unmarked) [Silybin A/B, Silybin] |  |  |  |  |  | Formation of p-NP [5]: + ^a |
|  |  |  | C[S+]([O-])CCCCN=C=S (centres unmarked) [sulforaphane, reference compound] |  |  |  |  |  | NQO1 activity, fold increase compared with the control ([8]; 2.5 µM, positive control): 4.3 fold |
